Assay results taken from US8629100B2, “Method of inhibiting clostridium difficile by administration of oritavancin” (The Medicines Company, priority 2007, dated 2014).
Values after ≈ are worked out from the molar mass of the structure shown.

Key:
[1] = test system: C. difficile vegetative cultures and spores; experiment: Spiral gradient endpoint analysis MIC; type: cell-based
Method: C. difficile PCR ribotypes 001, 106 and 027 were inoculated onto Columbia blood agar and incubated anaerobically (37° C.) for 10 d. Growth was harvested into sterile saline and alcohol shocked in an equal volume of 100% ethanol for 1 h. Alcohol-shocked spore suspensions were mixed by vortexing and sonicated for 5 minutes at room temperature. C. difficile phase-bright (non-germinated) spores were separated from phase-dark (germinated) spores and cellular debris by density gradient centrifugation (4000 rpm 15 minutes) following layering onto 50% (v/v in phosphate buffered saline) Urografin 370 (Schering, Germany). The density gradient centrifugation step was performed twice. Pellets of purified spores were re-suspended in sterile saline (1 mL per 10 Columbia blood agar plates harvested). Percentage phase-bright spores, phase-dark spores and vegetative cells were recorded using phase-contrast microscopy (×100 magnification).
A spiral plater (WASP2, Don Whitley Scientific, UK) was used to apply a logarithmic antibiotic gradient onto the surface of pre-dried (37° C. 20 minutes) Brazier's agar (pH 7). Agar with logarithmic antimicrobial gradients applied to their surface remained at room temperature for 1 h to allow the antimicrobial agent to adsorb into the agar. C. difficile vegetative cultures and spores (˜10^7 cfu/mL) were inoculated onto the agar surface (FIG. 1) with a sterile cotton swab and incubated anaerobically (37° C., 24 h). D-values were measured (in mm) and converted to MICs (Paton, J. H.1990. Int J Exp Clin Chemother. 9, 31-38).

[2] = test system: genotypically distinct C. difficile (n = 33); experiment: Broth macrodilution MIC; type: cell-based; settings: for MIC range / MIC90 / MIC: BM, broth macrodilution; for MIC90 / MIC: Clostridioides difficile; for MIC: read-out: GEO MIC
[3] = test system: C. difficile spores (PCR ribotypes 001, 106 and 027); experiment: Viability (recovery) of spores after antibiotic exposure, cellulose acetate filtration (Examples 3A, 3B); type: cell-based
Method: The experiments were in general performed by mixing C. difficile spores with an antibiotic, filtering the solution through cellulose acetate filters to collect the spores, applying the spore-containing filters to nutrient agar, and determining the number of spores remaining on the filters after a selected period of time.
Therefore, the initial experiment included dilution of antimicrobial-containing spore suspensions prior to filtration and washing. Reaction volumes were 1 mL for all antimicrobial/control solutions.
1 mL of control (de-ionised water+/−Tween-80) and test (antimicrobial containing) solutions were inoculated with 10 μL C. difficile spores (3 strains; PCR ribotypes 001, 106 and 027). Spore suspensions (time=1 min or 30 min) were transferred to filtration cupules and the appropriate volume of diluent (sterile de-ionised water+/−Tween-80) was added to achieve the dilution factors noted above. Samples were filtered onto cellulose acetate filters and washed with a further 50 mL of the appropriate diluent. Filters were transferred aseptically to Braziers CCEY agar containing 5 mg/L lysozyme and 2% lysed horse blood. This procedure was completed in duplicate. The culture media were incubated in an anaerobic atmosphere at 37° C. for 48 h and the numbers of C. difficile colonies were recorded.
Diluent was first added to filtration cupules. 1 mL reactions were then added to the appropriate diluent (1 min and 30 min after reaction formation) and filtered onto cellulose acetate filters. The filters were washed with 50 mL of the appropriate diluent. The filters were then transferred aseptically to Braziers CCEY agar containing 5 mg/L lysozyme and 2% lysed horse blood. This procedure was completed in duplicate. Culture media were incubated in an anaerobic atmosphere at 37° C. for 48 h and the numbers of C. difficile colonies recorded

[4] = test system: C. difficile (CD) ATCC 43255; experiment: Hamster model of CDI, oral administration; type: in vivo, Syrian golden hamsters; settings: for Mean survival time: ORI 100 mg/kg (HPCD), VA 50 mg/kg/day, oral, 5 days; for Survival prolonged more than untreated animals: formulated in HPCD, gavage
Method: C. difficile (CD) ATCC 43255 was used in all experiments. CD spores were prepared for the infection by incubating CD cells on blood agar plate at 37° C. anaerobically for 7 days, to promote spore formation. The CD colonies were resuspended in phosphate buffered saline (PBS) and mixed with an equal volume of 100% ethanol for one hour. The spores were centrifuged, resuspended in PBS, aliquoted, and frozen at −20° C. Spores were diluted in PBS for oral inoculation into hamsters.
All studies were performed in accordance with protocols that were approved by the Institutional Animal Care and Use Committee. […] One day later (Day 0), animals were infected orally with […] CD spores.
1) Starting on Day 1 post-infection (PI), a single dose of either vehicle, vancomycin (VA) (50 mg/kg/day), or oritavancin (ORI) formulated in 10% hydroxypropyl β-cyclodextrin (HPCD) (10, 50 or 100 mg/kg/day) was administered to the hamsters (n=10/group) by gavage for 5 days.
Detection of CD cells and toxins were detected in the caecal contents of animals at both the experimental and clinical endpoints. Presence of CD toxins (toxin A and B) were detected by using the CD TOX A/B IITM kit (Techlab) as described by the manufacturer. Limit of detection was ≧0.8 ng/mL for Toxin A and ≧2.5 ng/mL of Toxin B. Total viable cells (TC) (both vegetative and spore forms) were enumerated by serially diluting the caecal content by 10 fold in PBS containing 2% oxyrase (Oxyrase Inc). The caecal content dilutions were plated on Brazier's CCEY lysozyme agar (Lab160) without egg yolk. CD spores were counted by treating caecum samples with an equal volume of pure ethanol. The limit of detection (LOD) was 1.47 and 1.77 Log 10 CFU/g caecal content for TC and spores, respectively.
Data were analyzed by Kaplan-Meier and Log rank Wilcoxon tests survival analysis by using GraphPad Prism (version 5.00). A p-value lower than 0.05 (p<0.05) was considered to indicate statistical significance.

[5] = Example 3A: diluent added after reaction solutions, 1 min and 30 min exposure
[6] = Example 3B: diluent added to cupules before reaction solutions, 1 min and 30 min

SMILES	MICs for C. difficile vegetative cells versus spores ([1]; data not shown)	MIC range [2]	MIC90 [2]	MIC [2]	Recovery of C. difficile spores [3, 5]	Recovery of C. difficile spores [3, 6]	Mean survival time [4]	MICs against C. difficile spores lower than against vegetative cells ([1]; Brazier's agar pH 7, 24 h)	Broth macrodilution MICs lower than agar incorporation MICs [2]	Broth macrodilution geometric mean MICs lower than those for metronidazole [2]	Broth macrodilution geometric mean MICs lower than those for vancomycin [2]	Tested isolates more susceptible (≧2 doubling dilutions) than to vancomycin [2]	Survival prolonged more than untreated animals ([4]; 10 mg/kg once daily for 5 days)	Survival prolonged more than untreated animals ([4]; 50 mg/kg once daily for 5 days)	Survival prolonged more than untreated animals ([4]; 100 mg/kg once daily for 5 days)	Efficacy compared to VA on Day 12 PI ([4]; 100 mg/kg, HPCD)
CN[C@H](CC(C)C)C(=O)N[C@H]1C(=O)N[C@@H](CC(N)=O)C(=O)N[C@H]2C(=O)N[C@H]3C(=O)N[C@H](C(=O)N[C@H](C(=O)O)c4cc(O)cc(O)c4-c4cc3ccc4O)[C@H](O)c3ccc(c(Cl)c3)Oc3cc2cc(c3O[C@@H]2O[C@H](CO)[C@@H](O)[C@H](O)[C@H]2O[C@H]2C[C@](C)(N)[C@H](O)[C@H](C)O2)Oc2ccc(cc2Cl)[C@H]1O [vancomycin]	did not differ substantially	0.5 to 2 µg/mL	2 µg/mL (≈ 1.38 µM)	1.58 µg/mL (≈ 1.09 µM)	25-60 % of controls	70-80 % of controls	12 days									
CN[C@H](CC(C)C)C(=O)N[C@H]1C(=O)N[C@@H](CC(N)=O)C(=O)N[C@H]2C(=O)N[C@H]3C(=O)N[C@H](C(=O)N[C@H](C(=O)O)c4cc(O)cc(O)c4-c4cc3ccc4O)[C@H](O[C@H]3C[C@](C)(N)[C@@H](O)[C@H](C)O3)c3ccc(c(Cl)c3)Oc3cc2cc(c3O[C@@H]2O[C@H](CO)[C@@H](O)[C@H](O)[C@H]2O[C@H]2C[C@](C)(NCc3ccc(-c4ccc(Cl)cc4)cc3)[C@@H](O)[C@H](C)O2)Oc2ccc(cc2Cl)[C@H]1O [oritavancin, N-(4-(4-chlorophenyl)benzyl)A82846B]		0.06 to 1 µg/mL	1 µg/mL (≈ 0.558 µM)	0.31 µg/mL (≈ 0.173 µM)	0 % of controls	0 % of controls	17 days	5-13 fold	2- to 4 fold	~2 fold	~5 fold	76%	9 days	13 days	> 17 days	superior efficacy
